Source: patent US20110105517A1, “THERAPEUTIC AGENT FOR AMYOTROPHIC LATERAL SCLEROSIS” (priority 2008, published 2011)
Where a name gives a salt, the structure may show the parent alone.

What was measured:
ALS-SOD1^H46R mouse [1] = assay: Efficacy test in vivo: survival after the onset of the disease; settings: i.p. once a day from onset, non-administered group 27.8±2.1 day, FIG. 4
Procedure: (§1) In this test, ALS-SOD1^H46R mouse carrying the mutation in the SOD1 gene (SOD1^H46R) (ALS1) was used. The mice were housed at 23° C. with a 12 hr light/dark cycle. Bromocriptine mesylate was suspended in 0.5% carboxymethylcellulose sodium (CMC-Na). The administration of bromocriptine mesylate was initiated when the neurological symptoms was first observed (first manifestation of the illness) in the ALS-SOD1^H46R mouse in the balance beam test. The dosage of bromocriptine mesylate was 10 mg or 1 mg per 1 kg of body weight in each of the animals, and administered by intraperitoneal injection once a day until the animals died (group treated with bromocriptine mesylate). As the negative control, the mice were administered with 0.5% CMC-Na (5 ml/kg) (group not treated with bromocriptine mesylate). Balance beam test (stainless beam: 50 cm long, 0.9 cm wide) was employed to evaluate the appearance of neurological symptoms. The evaluation of symptoms was carried out in 5 grades. Grade 3 was considered to be the first manifestation of the symptoms. The evaluation criteria used are shown below.

[2] = tested on: differentiated SH-SY5Y cells; assay: Cell viability assay 2: oxidative stress (menadione)-induced cell death in differentiated neuronal cells; format: cell-based, human; settings: retinoic acid-differentiated cells; pre-treatment 5, 10, 20, 40 μM for 24 h; menadione 20-50 μM for 4 h; AlamarBlue; versus DMSO alone; FIG. 2
Procedure: SH-SY5Y cells were suspended in DMEM supplemented with 10% FBS, were plated at 1.0×10^4 cells/well in 96 well microtiter plate, and were incubated in 5% CO2 at 37° C. for 24 hours. The medium was then replaced with DMEM supplemented with 10% FBS and 10 μM all-trans retinoic acid (RA) (DMEM/FBS/RA), and after 5 days, bromocriptine mesylate in DMSO was added to the medium at the final concentrations of 5, 10, 20 and 40 μM. The amount of DMSO used in each samples were adjusted to that used in the 40 μM sample. The cells were cultured for additional 24 hours (bromocriptine mesylate treatment). As a negative control, DMSO without bromocriptine mesylate was added. Menadione was then added to the SH-SY5Y cells treated either with DMSO alone or bromocriptine mesylate at the final concentrations of 0, 20, 30, 40, and 50 μM, and cultured in 5% CO2 at 37° C. (oxidative stress treatment). As a negative control, 0.1% Triton X-100/DMEM/10% FBS was added. After 4 hours of oxidative stress treatment, the medium was replaced with that containing AlamarBlue, and the cell culture was resumed in 5% CO2, at 37° C. After 16 hours of incubation, the number of viable cells was counted by measuring the fluorescence at excitation wave length 530 nm/emission wave length 580 nm, using the fluorescence plate reader. […]

HeLa cells = assay: Cell viability assay 1: oxidative stress (menadione)-induced cell death in non-neuronal cells; format: cell-based; settings: pre-treatment 2.5, 5, 10 μM for 24 h; menadione 20-80 μM for 4 h; AlamarBlue; versus DMSO alone; FIG. 1
Procedure: HeLa cells (1.0×10^6) were plated in 75 cm^2 flask and were cultured in the presence of 5% CO2 at 37° C. for 16 hours. Bromocriptine mesylate in DMSO was then added to the medium at the final concentrations of 2.5, 5 and 10 μM. The amount of DMSO used in each samples were adjusted to that used in the 10 μM sample. Cells were cultured for additional 24 hours (bromocriptine mesylate treatment). As a negative control, DMSO without bromocriptine mesylate was added. Menadione was then added to the HeLa cells treated with bromocriptine mesylate at the final concentrations of 0, 20, 40, 60 and 80 μM and the cells were further incubated in 5% CO2, at 37° C. (oxidative stress treatment). As a negative control, 0.1% Triton X-100/DMEM/10% FBS was added in place of menadione. After 4 hours of oxidative stress treatment, the medium was replaced with that containing AlamarBlue, and the cell culture was resumed in 5% CO2, at 37° C. After 16 hours of incubation, the number of viable cells was counted by measuring the fluorescence at excitation wave length 530 nm/emission wave length 580 nm, using the fluorescence plate reader.
The X-axis of the graph represents menadione concentration (μM), while the Y-axis of the graph represents cell viability (%). The Y-axis values under each condition are shown as viability relative to the no menadione treatment (0 μM) control which is set at 100%.

ALS-SOD1^H46R mouse [3] = assay: Efficacy test in vivo: motor function in vertical climb test; settings: 10 mg/kg i.p. once a day from onset of symptoms; n=5; non-administered group deteriorated significantly; FIG. 3
Procedure: as §1
The motor functions of mice in bromocriptine mesylate administered group and non-administered group were evaluated by vertical climb test (stainless bar: 50 cm long, 0.9 cm wide). […] The best score among the 5 test results was recorded as the motor function value. […]

CC(C)C[C@H]1C(=O)N2CCC[C@H]2[C@]2(O)O[C@](NC(=O)[C@@H]3C=C4c5cccc6[nH]c(Br)c(c56)C[C@H]4N(C)C3)(C(C)C)C(=O)N12 [bromocriptine mesylate]
overall survival after the onset of the disease (ALS-SOD1^H46R mouse [1]; 1 mg/kg, n=4): 35.3 ± 6.0 days | overall survival after the onset of the disease (ALS-SOD1^H46R mouse [1]; 10 mg/kg, n=5): 38.0 ± 2.9 days | viabilities of SH-SY5Y cells exposed to oxidative stress by menadione [2]: increased depending on the concentration of bromocriptine mesylate | viabilities of HeLa cells exposed to oxidative stress by menadione (HeLa cells): increased depending on the concentration of bromocriptine mesylate | motor function (vertical climb test) at 21 weeks of age (ALS-SOD1^H46R mouse [3]): largely unchanged
